pIC50: −log10 of the molar value.
Tests used:
[1] = system: abdominal stretching after phenylbenzoquinone (PBQ); test: analgesic activity: blockade of abdominal stretching after phenylbenzoquinone (PBQ); type: in vivo, mice, Carworth CF-1 strain; set-up: key: (a): No significant activity noted at this dose level; conditions: s.c., 20 min. pre-treatment
Method: To test for the analgesic activity of the compounds of the present invention, a chemical nociceptive stimulus is employed, viz., blockade of abdominal stretching after phenylbenzoquinone (PBQ). […] The animals to be used are fasted for 15-16 hr. before the start of the experiment. Fifteen mice (groups of 5) weighing 11-15 g. are employed per dose level. Compounds are given by the oral or subcutaneous route. Drug pre-treatment times are 1 hr. (p.o.) and 20 min. (s.c.). Pairs of mice are injected with 2 mg./kg. of PBQ i.p. and placed in a lucite box (11×7×9.5 in.) maintained at 40° by a thermostatically controlled water bath. Starting 5 min. later the animals are observed for 5 min. and the number of abdominal stretching responses per animal is recorded. A stretch is considered to represent an intermittent contraction of the abdomen, hind limb extension, pelvic rotation, or opisthotonos (the abdomen of the mouse touches the floor of the cage and is dragged the length of the cage). The degree of analgesic protection is calculated on the basis of the suppression of writhing relative to control animals run on the same day (% MPE). This test reflects the ultimate clinical utility of the compounds as analgesic agents.

[2] = target: T1, enkephalinase (Rattus norvegicus, UniProt P07861); test: inhibition of enkephalinase enzyme in vitro (Tyr-gly-gly formation from 3H-leucine-enkephalin); type: biochemical, Sprague-Dawley CD male rats (whole brain minus cerebellum); conditions: pH 7.7, 37° C., 1 hour
T1 construct: whole brain (minus cerebellum) is removed from Sprague-Dawley CD male rats; from tissue; host or cells: rat whole brain minus cerebellum (Sprague-Dawley CD male rats, Charles River); washed membranes solubilized with 1% Triton X-100
T1 sequence (P07861 1-750): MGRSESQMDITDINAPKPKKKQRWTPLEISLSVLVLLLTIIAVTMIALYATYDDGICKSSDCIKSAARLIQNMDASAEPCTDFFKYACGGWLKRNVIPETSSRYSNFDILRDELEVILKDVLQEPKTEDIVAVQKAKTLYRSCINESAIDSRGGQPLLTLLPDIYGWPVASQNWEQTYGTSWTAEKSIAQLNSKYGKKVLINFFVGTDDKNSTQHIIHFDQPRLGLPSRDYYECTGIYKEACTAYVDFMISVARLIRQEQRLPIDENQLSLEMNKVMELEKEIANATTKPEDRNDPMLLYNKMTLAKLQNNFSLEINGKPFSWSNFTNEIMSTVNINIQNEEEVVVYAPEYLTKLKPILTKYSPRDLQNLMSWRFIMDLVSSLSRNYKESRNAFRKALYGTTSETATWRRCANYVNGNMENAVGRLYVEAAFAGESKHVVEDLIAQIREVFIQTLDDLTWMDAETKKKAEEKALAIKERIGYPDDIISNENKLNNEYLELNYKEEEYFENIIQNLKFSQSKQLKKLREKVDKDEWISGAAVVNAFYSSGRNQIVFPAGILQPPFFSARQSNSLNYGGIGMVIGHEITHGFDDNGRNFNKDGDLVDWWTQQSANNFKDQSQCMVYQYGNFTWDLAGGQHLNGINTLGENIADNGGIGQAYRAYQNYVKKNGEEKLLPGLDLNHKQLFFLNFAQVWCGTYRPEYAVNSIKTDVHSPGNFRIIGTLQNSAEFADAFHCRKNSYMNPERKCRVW
Method: The compounds of the present invention are studied in vitro for inhibition of enkephalinase enzyme in the following manner. To prepare the enzyme, whole brain (minus cerebellum) is removed from Sprague-Dawley CD male rats (Charles River Breeding Laboratories, Inc., Wilmington, MA; 200-250 g.) following decapitation. The tissue is homogenized (Polytron, Brinkmann Instruments, Inc., Westbury, NY) in 30 volumes (w/v) of ice-cold 50 mM Tris-HCl tris(hydroxymethyl)methylamine hydrochloride, Fisher Scientific Co., Fair Lawn, NJ) pH 7.7 buffer. The homogenate in centrifuged at 50,000×g. for 15 minutes. The pellet is resuspended in 50 mM Tris-HCl pH 7.7 buffer and centrifuged at 50,000×g. for 15 minutes. The resultant pellet is resuspended and centrifuged 3 additional times as described above. The membrane pellet is dispersed in 15 volumes of 50 mM Tris-HCl pH 7.7 buffer containing 1% Triton X-100 (Rohm and Haas, Philadelphia, PA) and incubated at 37° C. for 45 minutes. After centrifugation at 100,000×g. for 60 minutes, the solubilized enzymes are frozen in 2 ml. aliquots (this preparation can be stored frozen for 3 months).
One set of control tubes contains boiled enzyme (heated at 100° C. for 10 minutes) for blank. The reaction is stopped by boiling tubes for 10 minutes, followed by centrifugation for 1 minute in the Beckman Microfuge centrifuge. A ten microl aliquot of each supernatant is spotted on a thin layer chromatography (TLC) plate (Silica Gel 60, 20×20 cm, E. Merck, Darmstadt, Germany) using 1-8 samples per plate. Ten microl of a standard mixture consisting of 0.4 mg./ml. tyrosine (tyr, Mann Research Laboratories, Inc., New York, NY), 1 mg./ml. L-tyrosylglycine (tyr-gly Sigma), 1 mg./ml. L-tyrosylglycylglycine (tyr-gly-gly, Sigma) and 1 mg./ml. leucine-enkephalin (leu-E, Calbiochem-Behring Corp., La Jolla, CA) are spotted on top of each incubation mixture spot, as well as separately on each plate, to aid in zone indentification.
Plates are dried and placed in covered glass tanks equilibrated with 100 ml. of isopropanol:ethyl acetate:5% acetic acid (2:2:1). After development of the TLC plates, the separated products were visualized by spraying with a ninhydrin:acetone (0.5%, w/v) solution and heating for 10 minutes at 100° C. in a vacuum oven. Rf values of standard markers are: tyr, 0.33; tyr-gly, 0.20: tyr-gly-gly, 0.13; leu-E, 0.47. The radioactive spots are identified by the added markers and scraped into scintillation vials to which 1 ml. ethanol is added, followed by 10 ml. Aquasol-2 (New England Nuclear). Vials are kept overnight and counted for radioactivity in a liquid scintillation counter. Tyr-gly-gly formation is based on the difference between total counts per minute for this TLC zone minus the corresponding value obtained by using boiled enzyme (blank). […]

[3] = system: supramaximal electroconvulsive shock (ECS); test: anticonvulsant effect vs. supramaximal electroconvulsive shock (ECS) in mice; type: in vivo, Charles River males, Swiss CD strain; conditions: for ED50: Mus musculus, sc, mice, 1 hr. before ECS
Method: The anticonvulsant activity of the compounds of the present invention is determined by testing in mice, viz., Charles River males, Swiss CD strain (17-21 g.), fasted for 18 hr. before testing. Groups of mice are treated with a range of levels of the test compounds, and 1 hr. later with supramaximal electroconvulsive shock (ECS), administered for 0.2 sec. at 50 mA, 60 Hz, through transcorneal electrodes. After administration of the electrical stimulus, each mouse is observed for 10 sec. for the presence or absence of hind limb tonic extension. […] Blockade of supramaximal ECS in mice is a common laboratory test for clinical utility as an anticonvulsant, and certain known anticonvulsant drugs show activity in this test.

[4] = system: enkephalinase; conditions: Roques et al., Nature 288, 286-288 (1980); cited from earlier work
[5] = system: hot plate jump test; conditions: mice; Roques et al.; cited from earlier work
[6] = system: tail withdrawal test; conditions: mice; Roques et al.; cited from earlier work

Row | pIC50 [2] | Structure (SMILES) | Percent Blockade of Abdominal Stretching (% MPE) After Phenylbenzoquinone ([1]; 320 mg./kg.) | ED50 [3] [mg/kg] | further results
1 |  | CSCC[C@@H](CO)NC(=O)[C@@H](CS)Cc1ccc(Cl)cc1 [I (X=4-Cl, R=H, n=2, m=0, R^1=CH3)] | 86 % MPE |  | 
2 | 8.04 | CSCC[C@H](NC(=O)[C@H](CS)Cc1ccccc1)C(=O)O [III] |  | 74.1 | Percent Blockade of Abdominal Stretching (% MPE) After Phenylbenzoquinone ([1]; 160 mg./kg.): 57 % MPE
3 |  | CSCC[C@@H](CO)NC(=O)[C@H](CS)Cc1ccc(Cl)cc1 [II (X=4-Cl, R=H, n=2, m=0, R^1=CH3)] | 75 % MPE |  | 
4 |  | O=C(O)CNC(=O)C(CS)Cc1ccccc1 (stereo not shown) [Thiorphan, N-(2-benzyl-3-mercaptopropionyl)glycine] |  | > 320 | anticonvulsant activity (in words) ([3]; even at a much higher dose): inactive; enkephalinase inhibition (in words) [4]: specific enkephalinase inhibitor; analgesic (antinociceptive) activity, hot plate jump test (in words) [5]: elicit analgesic (antinociceptive) activity; analgesic (antinociceptive) activity, tail withdrawal test (in words) [6]: not in the so-called tail withdrawal test
5 | 5.02 | CSCC[C@@H](CO)NC(=O)[C@H](CS)Cc1ccccc1 [II (X=H, R=H, n=2, m=0, R^1=CH3)] | (a) |  | 
6 |  | COc1ccc(C[C@@H](CS)C(=O)N[C@H](CO)CCSC)cc1 [II (X=4-OCH3, R=H, n=2, m=0, R^1=CH3)] | 46 % MPE |  | 
7 | 6.32 | CSCC[C@@H](CO)NC(=O)[C@@H](CS)Cc1ccccc1 [I (X=H, R=H, n=2, m=0, R^1=CH3)] | 100 % MPE | 178 | Percent Blockade of Abdominal Stretching (% MPE) After Phenylbenzoquinone ([1]; 170 mg./kg.): 23 % MPE; Percent Blockade of Abdominal Stretching (% MPE) After Phenylbenzoquinone ([1]; 233 mg./kg.): 69 % MPE
8 | 7.15 | CSCC[C@H](NC(=O)[C@@H](CS)Cc1ccccc1)C(=O)O [IV] |  | 141 | Percent Blockade of Abdominal Stretching (% MPE) After Phenylbenzoquinone ([1]; 160 mg./kg.): 48 % MPE
9 |  | COc1ccc(C[C@H](CS)C(=O)N[C@H](CO)CCSC)cc1 [I (X=4-OCH3, R=H, n=2, m=0, R^1=CH3)] | 62 % MPE |  | 

Reference: patent US4329495A, “Enkephalinase enzyme inhibiting compounds” (Pfizer Inc., priority 1981, dated 1982)
